Data: the supplement of paper PMC10307832

How the values were obtained:
Assay in all cases: relative viability (nuclei count vs DMSO), 5 days (fraction); higher = more cells survive
[1] = compound: CN[C@@H]1C[C@H]2O[C@@](C)([C@@H]1OC)n1c3ccccc3c3c4c(c5c6ccccc6n2c5c31)C(=O)NC4 [Staurosporine] + C[C@]1(O)C[C@@H](c2nc(-c3ccc4ccc(-c5ccccc5)nc4c3)c3c(N)nccn32)C1 [Linsitinib] (partner 1 µM)
How it was run: (§1)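 One day after seeding in 1536-well plates, lung cancer cell lines were dosed by pin tool. Dosing was either single-drug or a fixed anchor-drug dose plus five library-drug doses (not always all listed) in √10 steps. After 5 days, nuclei were stained in one fix-and-stain step and counted on 4× images, and relative viability is the nuclei count of treated wells over that of vehicle wells, given as the median of duplicate plates.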

[2] = compound: O=c1[nH]cc(F)c(=O)[nH]1 [5-Fluorouracil] + COc1cccc2cc(-c3nc([C@H]4CC[C@H](C(=O)O)CC4)n4ncnc(N)c34)[nH]c12 [OSI-027] (partner 0.5 µM)
How it was run: as §1

[3] = compound: O=c1[nH]cc(F)c(=O)[nH]1 [5-Fluorouracil] + NC(=O)Nc1cc(-c2cccc(F)c2)sc1C(=O)N[C@H]1CCCNC1 [AZD7762] (partner 0.2 µM)
How it was run: as §1

[4] = compound: O=c1[nH]cc(F)c(=O)[nH]1 [5-Fluorouracil] + Nc1nc2[nH]cc(CCc3ccc(C(=O)N[C@@H](CCC(=O)O)C(=O)O)cc3)c2c(=O)[nH]1 [Pemetrexed] (partner 0.2 µM)
How it was run: as §1

Cell Line	relative viability ([1]; first compound 0.005 µM)	relative viability ([1]; first compound 0.01581 µM)	relative viability ([1]; first compound 0.05 µM)	relative viability ([1]; first compound 0.1581 µM)	relative viability ([1]; first compound 0.5 µM)	relative viability ([2]; first compound 0.02 µM)	relative viability ([2]; first compound 0.2 µM)	relative viability ([2]; first compound 0.6325 µM)	relative viability ([2]; first compound 2 µM)	relative viability ([3]; first compound 0.02 µM)	relative viability ([3]; first compound 0.2 µM)	relative viability ([3]; first compound 0.6325 µM)	relative viability ([3]; first compound 2 µM)	relative viability ([4]; first compound 0.02 µM)	relative viability ([4]; first compound 0.2 µM)	relative viability ([4]; first compound 0.6325 µM)	relative viability ([4]; first compound 2 µM)
NCI-H838	0.248	0.153	0.18	0.164	0.099	0.42	0.373	0.252	0.209	0.915	0.684	0.654	0.642	0.261	0.253	0.257	0.249
EMC-BAC-2	0.457	0.394	0.122	0.152	0.133	0.363	0.407	0.376	0.361	1.14	1.22	1.11	1.01	0.47	0.479	0.419	0.484
NCI-H1355	0.908	0.543	0.24	0.269	0.223	0.465	0.4	0.274	0.268	0.673	0.37	0.231	0.198	0.928	0.762	0.311	0.257
NCI-H2347	0.899	0.732	0.402	0.446	0.351	0.939	0.322	0.298	0.329	0.63	0.45	0.339	0.343	0.365	0.414	0.424	0.426
NCI-H1651	0.827	0.587	0.331	0.122	0.0924	0.832	0.628	0.507	0.475	0.458	0.234	0.186	–	0.502	0.457	0.3	0.305
NCI-H1993	0.761	0.634	0.605	0.439	0.55	0.565	0.501	0.538	0.537	0.737	0.622	0.542	0.505	0.559	0.49	0.577	0.525
HCC-44	0.328	0.194	0.101	0.111	0.0981	0.664	0.479	0.483	0.31	1.01	0.925	0.733	0.466	0.641	0.625	0.569	0.471
LOU-NH91	0.979	0.744	0.63	0.365	0.274	0.694	0.788	0.692	0.432	0.754	0.725	0.44	0.313	0.359	0.342	0.317	0.309
NCI-H1975	0.323	0.229	–	0.139	0.124	0.793	0.793	0.417	0.26	–	0.596	0.32	0.28	0.309	0.28	0.243	0.219
NCI-H1755	0.856	0.595	0.283	0.18	0.171	0.703	0.702	0.389	0.264	0.4	0.31	0.285	0.28	0.509	0.367	0.32	0.295
LK-2	0.698	0.506	0.753	0.473	0.154	0.196	0.188	0.199	0.165	0.482	0.486	0.153	0.188	0.294	0.35	0.264	0.201
HCC-78	0.613	0.457	0.363	0.295	0.268	0.618	0.369	0.335	0.306	0.562	0.503	0.239	0.306	0.924	0.866	0.858	0.915
NCI-H3122	1.11	0.561	0.874	0.544	0.247	1.04	0.871	0.349	–	0.959	0.856	0.197	0.143	0.197	0.181	0.167	0.164
HOP-62	1.07	0.604	0.117	0.111	0.108	0.87	0.938	0.846	0.633	0.636	1.06	0.522	0.473	0.323	0.361	0.287	0.342
NCI-H358	0.573	0.281	0.189	0.152	0.122	0.819	0.888	0.508	0.289	0.595	0.505	0.477	0.293	0.177	0.182	0.172	0.169
BEN	1.23	0.923	0.436	0.52	0.245	0.303	0.312	0.315	0.326	0.791	0.804	0.606	0.679	0.817	0.837	0.758	0.903
NCI-H460	0.406	0.169	0.0258	0.0051	0.0055	0.803	0.35	0.0996	0.0548	0.678	0.332	0.0757	0.0672	0.0627	0.0623	0.0575	0.0952
NCI-H1792	0.488	0.287	0.105	0.114	0.0997	0.838	0.602	0.317	0.222	0.641	0.303	0.213	0.218	0.948	0.569	0.215	0.191
NCI-H2085	0.745	0.502	0.541	0.38	0.337	0.69	0.676	0.771	0.502	0.938	0.935	0.837	0.644	0.886	0.893	0.857	0.599
